Reference: patent US9504676B2, “Molecules inhibiting a metabolic pathway involving the Syk protein tyrosine kinase and method for identifying said molecules” (CENTRE NATIONAL DE LA RECHERCHE SCIENTIFIQUE, priority 2008, dated 2016)

System: PLC-γ1 and PLC-γ2
Assay: Phosphorylation of PLC-γ1 and PLC-γ2 in mast cells
Format: cell-based
Source text: To examine the functional similarities with G4G11, the inventors explored the biological effects of C-13 on mast cell activation. […] Similarly to the intrabody G4G11, C-13 inhibited the phosphorylation and FcεRI-induced kinase activity of Btk (FIG. 2A) and the phosphorylation of PLC-γ1 and PLC-γ2, the two PLC-γ isoforms expressed in mast cells (FIGS. 2A, C). PTK Lyn phosphorylates both Syk and Btk giving rise to the complete activation thereof and the subsequent phosphorylation of PLC-γ^18.
• 1) Chemical products and antibodies. A chemical bank of 3000 molecules (a varied subset) was acquired from ChemBridge, Inc. (San Diego, Calif.). Stocks of solutions of small molecules were prepared at a rate of 10 mM in DMSO (dimethylsulphoxide), except for C-13 (methyl 2-{5-[(3-benzyl-4-oxo-2-thioxo-1,3-thiazolidin-5-ylidene)methyl]-2-furyl}benzoate, ChemBridge ID No. 6197026) prepared in DMF (dimethylformamide). […] The binding of G4G11 with Syk was assessed by adding the 9E10 monoclonal antibody conjugated with HRP detecting the amino acid sequence EQKLISEEDLN of human c-myc protein located at the C-terminal end of the scFv fragment. To generate Syk mutants, targeted mutagenesis was used on GST:Syk 6-242 protein and the binding of G4G11 with the mutants was assessed in the presence of 5 μM of C-13. • 3) Cells, culture conditions and functional tests. […]

SMILES: COC(=O)c1ccccc1-c1ccc(/C=C2/SC(=S)N(Cc3ccccc3)C2=O)o1 [Molecule C-13, methyl 2-{5-[(3-benzyl-4-oxo-2-thioxo-1,3-thiazolidin-5-ylidene)methyl]-2-furyl}benzoate]
- phosphorylation of PLC-γ1 and PLC-γ2: inhibited
